Results taken from paper PMC6567057, “Pharmacokinetic, metabolic stability, plasma protein binding and CYP450s inhibition/induction assessment studies of N-(2-pyridylmethyl)-2-hydroxiymethyl-1-pyrrolidinyl-4-(3-chloro-4-methoxy-benzylamino)-5-pyrimidine-carboxamide as potential type 5 phosphodiesterase inhibitors” (Animal Cells and Systems, 2019).

Experiments:
[1] = Stability in plasma, 6 h incubation at 37°C (rat); type: in vitro ADME; conditions: Sprague-Dawley
Description: (§1) The phosphate buffer (100 mM) and sodium hydroxide solution (1.0 M) were prepared in deionized water. […] PPB was determined by equilibrium dialysis method. An aliquot (150 μL) of NHPPC spiked plasma and phosphate buffer (pH 7.4) was added into the donor side and the receiver side of each designated well. The plate was covered with adhesive sealing film to prevent evaporation and placed in a water-bath shaker kept at 37°C for 6 h with a rate of 50 rpm. […] At the end of 6 h, aliquots were taken from each side of each well (n = 3) and kept in a −20°C freezer prior to analysis. The stability, device recovery and PPB were calculated using the following equations: Remaining at 6 h (%)=C6h/C0h×100%, Device recovery (%)=CDonor+CReceiver/C6h×100%, PPB (%)=CDonor−CReceiver/CDonor×100%.

[2] = Stability in plasma, 6 h incubation at 37°C (dog); type: in vitro ADME; conditions: beagle
Description: as §1

[3] = Plasma protein binding by equilibrium dialysis (rat); type: in vitro ADME, Sprague–Dawley rat; conditions: Sprague-Dawley
Description: as §1

rat plasma proteins = experiment: as above; type: in vitro ADME, Sprague–Dawley rat; conditions: rat plasma, mean of 0.2 and 1 µM
Description: as §1

[4] = Plasma protein binding by equilibrium dialysis (dog); type: in vitro ADME, Beagle dog; conditions: beagle
Description: as §1

dog plasma proteins = experiment: as above; type: in vitro ADME, Beagle dog; conditions: dog plasma, mean of 0.2 and 1 µM
Description: as §1

CYP1A2 = molecular target: T1, CYP1A2 (Homo sapiens, UniProt P05177); experiment: CYP isozyme inhibition in human liver microsomes; type: in vitro ADME; conditions: calculated from inhibition at 3 μM
T1 construct: tissue BD Gentest; host or cells: pooled human liver microsomes
T1 sequence (P05177 1-516): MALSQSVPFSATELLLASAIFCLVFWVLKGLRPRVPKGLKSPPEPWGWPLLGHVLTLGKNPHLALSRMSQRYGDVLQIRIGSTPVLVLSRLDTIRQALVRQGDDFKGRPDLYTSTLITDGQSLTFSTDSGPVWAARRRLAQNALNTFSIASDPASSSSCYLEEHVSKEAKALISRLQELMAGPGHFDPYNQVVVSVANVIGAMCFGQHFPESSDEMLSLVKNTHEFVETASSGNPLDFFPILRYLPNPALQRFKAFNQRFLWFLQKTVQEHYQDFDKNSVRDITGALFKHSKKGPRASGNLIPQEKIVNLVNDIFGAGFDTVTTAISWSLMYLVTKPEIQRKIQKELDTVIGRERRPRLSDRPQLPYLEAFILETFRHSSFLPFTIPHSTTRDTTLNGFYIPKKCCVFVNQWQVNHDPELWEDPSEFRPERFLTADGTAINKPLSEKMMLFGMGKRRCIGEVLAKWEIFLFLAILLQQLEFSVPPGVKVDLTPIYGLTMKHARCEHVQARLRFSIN
Description: (§2) The stock solutions of the probe substrates phenacetin (20.0 mM), diclofenac (20.0 mM), S-mephenytoin (30 mM), dextromethorphan (10.0 mM), midazolam (10.00 mM) and testosterone (50.0 mM) were prepared using methanol, while α-Naphtoflavone (3.0 mM), sulfaphenazole (3.0 mM), N-3-benzylnirvanol (3.0 mM), quinidine (3.0 mM), ketoconazole (3.0 mM) and NHPPC (10.0 mM) were prepared using DMSO, and diluted with phosphate buffer (PB, 100 mM, pH 7.4) before added into the incubation system. The organic solvents in the final incubate were no more than 0.20%. The incubation medium was 100 mM phosphate buffered saline, and the final incubation volume was 200 μL containing 25 pmol/mL human liver microsomes CYP enzyme, probe substrate, 1 mM NADPH and NHPPC at 3.00 μM. The reactions were initiated after 5 min pre-incubation at 37°C and were terminated by the addition of 400 μL ice-cold acetonitrile. All incubations were conducted in triplicate, and the samples were stored at −80°C until analysis. Calculation of IC50 was performed by using following equations, where C is concentration of test compounds.

CYP2C19 = molecular target: T2, CYP2C19 (Homo sapiens, UniProt P33261); experiment: CYP isozyme inhibition in human liver microsomes; type: in vitro ADME; conditions: calculated from inhibition at 3 μM
T2 construct: tissue BD Gentest; host or cells: pooled human liver microsomes
T2 sequence (P33261 whole entry): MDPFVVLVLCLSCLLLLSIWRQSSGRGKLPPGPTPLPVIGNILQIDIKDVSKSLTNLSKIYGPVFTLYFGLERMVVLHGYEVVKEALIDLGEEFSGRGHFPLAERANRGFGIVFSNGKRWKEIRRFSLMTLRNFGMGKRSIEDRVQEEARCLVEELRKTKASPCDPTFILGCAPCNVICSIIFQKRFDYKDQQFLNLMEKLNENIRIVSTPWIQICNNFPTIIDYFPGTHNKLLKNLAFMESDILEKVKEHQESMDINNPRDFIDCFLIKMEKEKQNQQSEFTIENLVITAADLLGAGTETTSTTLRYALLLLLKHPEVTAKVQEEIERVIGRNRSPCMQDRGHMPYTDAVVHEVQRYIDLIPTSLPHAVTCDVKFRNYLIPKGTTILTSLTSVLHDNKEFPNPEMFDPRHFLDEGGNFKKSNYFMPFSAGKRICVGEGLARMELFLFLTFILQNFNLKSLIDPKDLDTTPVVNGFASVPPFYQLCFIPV
Description: as §2

CYP2C9 = molecular target: T3, CYP2C9 (Homo sapiens, UniProt P11712); experiment: CYP isozyme inhibition in human liver microsomes; type: in vitro ADME; conditions: calculated from inhibition at 3 μM
T3 construct: tissue BD Gentest; host or cells: pooled human liver microsomes
T3 sequence (P11712 whole entry): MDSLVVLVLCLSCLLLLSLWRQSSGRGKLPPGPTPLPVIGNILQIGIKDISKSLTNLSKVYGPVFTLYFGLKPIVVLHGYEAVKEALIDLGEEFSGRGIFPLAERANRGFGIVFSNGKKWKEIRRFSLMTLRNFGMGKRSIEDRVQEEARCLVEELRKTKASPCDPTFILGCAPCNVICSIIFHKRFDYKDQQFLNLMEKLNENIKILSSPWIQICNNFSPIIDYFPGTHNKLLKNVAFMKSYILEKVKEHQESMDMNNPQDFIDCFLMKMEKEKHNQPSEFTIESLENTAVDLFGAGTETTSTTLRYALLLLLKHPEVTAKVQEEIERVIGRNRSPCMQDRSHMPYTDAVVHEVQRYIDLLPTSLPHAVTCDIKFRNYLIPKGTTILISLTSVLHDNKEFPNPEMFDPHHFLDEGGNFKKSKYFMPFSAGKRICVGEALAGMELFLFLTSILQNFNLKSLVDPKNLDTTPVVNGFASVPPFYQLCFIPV
Description: as §2

CYP2D6 = molecular target: T4, CYP2D6 (Homo sapiens, UniProt P10635); experiment: CYP isozyme inhibition in human liver microsomes; type: in vitro ADME; conditions: calculated from inhibition at 3 μM
T4 construct: tissue BD Gentest; host or cells: pooled human liver microsomes
T4 sequence (P10635 whole entry): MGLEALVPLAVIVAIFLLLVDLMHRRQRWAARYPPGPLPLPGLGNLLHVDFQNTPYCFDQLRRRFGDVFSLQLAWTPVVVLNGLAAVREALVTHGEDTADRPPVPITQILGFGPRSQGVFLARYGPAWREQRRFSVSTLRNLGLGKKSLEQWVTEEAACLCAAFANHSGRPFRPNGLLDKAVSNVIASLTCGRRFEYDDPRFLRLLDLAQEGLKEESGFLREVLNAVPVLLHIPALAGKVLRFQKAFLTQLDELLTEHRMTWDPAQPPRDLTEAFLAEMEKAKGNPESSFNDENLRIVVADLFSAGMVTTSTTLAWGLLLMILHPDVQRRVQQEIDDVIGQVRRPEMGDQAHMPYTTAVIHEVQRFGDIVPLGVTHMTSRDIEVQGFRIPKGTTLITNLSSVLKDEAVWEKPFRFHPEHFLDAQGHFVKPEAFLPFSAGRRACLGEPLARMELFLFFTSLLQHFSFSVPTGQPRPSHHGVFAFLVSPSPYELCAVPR
Description: as §2

CYP3A4 = molecular target: T5, CYP3A4 (Homo sapiens, UniProt P08684); experiment: CYP isozyme inhibition in human liver microsomes; type: in vitro ADME; conditions: calculated from inhibition at 3 μM
T5 construct: tissue BD Gentest; host or cells: pooled human liver microsomes
T5 sequence (P08684 whole entry): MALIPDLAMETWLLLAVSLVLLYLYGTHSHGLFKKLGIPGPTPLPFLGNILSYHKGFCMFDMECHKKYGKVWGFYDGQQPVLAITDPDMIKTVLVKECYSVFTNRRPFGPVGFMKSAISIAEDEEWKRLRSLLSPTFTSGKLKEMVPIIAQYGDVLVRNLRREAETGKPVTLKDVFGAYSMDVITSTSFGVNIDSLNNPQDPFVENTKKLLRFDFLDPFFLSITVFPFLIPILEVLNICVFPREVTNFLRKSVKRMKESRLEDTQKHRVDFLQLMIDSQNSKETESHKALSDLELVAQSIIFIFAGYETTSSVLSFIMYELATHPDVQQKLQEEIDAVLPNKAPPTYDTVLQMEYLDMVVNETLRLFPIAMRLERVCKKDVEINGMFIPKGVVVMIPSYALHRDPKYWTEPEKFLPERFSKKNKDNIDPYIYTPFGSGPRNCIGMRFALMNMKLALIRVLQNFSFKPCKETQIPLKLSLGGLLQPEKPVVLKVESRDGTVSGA
Description: as §2

rabbit model = experiment: Preliminary efficacy experiment of rabbit model in vivo; conditions: compared with avanafil, data not published
[5] = 0.2 µM, n = 3, read-out: Mean drug remaining %
[6] = 1 µM, n = 3, read-out: Mean drug remaining %
[7] = mean of 0.2 and 1 µM, read-out: Mean drug remaining %

remaining at 6 h, 0.2 µM [1, 5]: 100 ± 1.93% | remaining at 6 h, 1 µM [1, 6]: 102 ± 1.26% | remaining at 6 h [1, 7]: 101 ± 1.01% | remaining at 6 h, 0.2 µM [2, 5]: 99.6 ± 0.53% | remaining at 6 h, 1 µM [2, 6]: 100.4 ± 0.98% | remaining at 6 h [2, 7]: 100 ± 1.24% | recovery at 6 h, 0.2 μM ([3]; pH 7.4, rat plasma, equilibrium dialysis, n = 3, read-out: Mean device recovery %): 98.6 ± 0.13% | fraction unbound at 6 h, 0.2 µM ([3]; rat, plasma, pH 7.4, rat plasma, 0.2 µM, equilibrium dialysis 6 h, read-out: Mean PPB % (converted)): 0.043 | fraction unbound at 6 h, 1 µM ([3]; rat, plasma, pH 7.4, rat plasma, 1 µM, equilibrium dialysis 6 h, read-out: Mean PPB % (converted)): 0.033 | fraction unbound at 6 h ([3]; rat, plasma, pH 7.4, rat plasma, mean of 0.2 and 1 µM, read-out: Mean PPB %): < 0.05 | Mean PPB % (rat plasma proteins): 96.2 ± 0.18% | fraction unbound at 6 h, 0.2 µM ([4]; dog, plasma, pH 7.4, dog plasma, 0.2 µM, equilibrium dialysis 6 h, read-out: Mean PPB % (converted)): 0.008 | fraction unbound at 6 h, 1 µM ([4]; dog, plasma, pH 7.4, dog plasma, 1 µM, equilibrium dialysis 6 h, read-out: Mean PPB %): 0.001 ± 3.8e-06 | recovery at 6 h, 0.2 μM ([4]; pH 7.4, dog plasma, equilibrium dialysis, n = 3, read-out: Mean device recovery %): 95.7 ± 0.3% | Mean PPB % (dog plasma proteins): 99.6 ± 0.26% | IC50 (CYP1A2): > 100 µM | IC50 (CYP2C19): > 100 µM | IC50 (CYP2C9): 21.9 µM | IC50 (CYP2D6): > 100 µM | IC50 (CYP3A4; CYP3A4 (midazolam based)): > 100 µM | IC50 (CYP3A4; CYP3A4 (testosterone based)): > 100 µM
SMILES: COc1ccc(CNc2nc(N3CCC[C@H]3CO)ncc2C(=O)NCc2ccccn2)cc1Cl [NHPPC, N-(2-pyridylmethyl)-2-hydroxiymethyl-1-pyrrolidinyl-4-(3-chloro-4-methoxy-benzylamino)-5-pyrimidine-carboxamide]
preliminary efficacy (rabbit model): stronger than avanafil
